Experimental data taken from US20050042674A9, “Common ligand mimics: thiazolidinediones and rhodanines” (priority 2002, published 2005).

Assays:
[1] = target: dihydrodipicolinate reductase (DHPR) (Escherichia coli, UniProt P04036); test: DHPR kinetic assay, spectrophotometric oxidation of NADPH at 340 nm; assay type: biochemical; conditions: Cibacron Blue at 2.58 μM; read-out: inhibition of DHPR, positive control
Procedure: DHPR was diluted in 10 mM HEPES at a pH of 7.4. DHPS (dihydrodipicolinate synthase) was not diluted and was stored in eppindorf tubes.
The L-ASA (L-aspartate semialdehyde) solution was prepared in the following manner. […] stock solution of ASA was prepared. 100 μl of the ASA stock solution was mixed with 150 μl of concentrated NaHCO3 and 375 μl of H2O. For use in the assay, 28.8 mM L-ASA was equal to 625 μl of the solution. The L-ASA stock solution was kept at a temperature of −20° C. After dilution, the pH of the 28.8 mM solution was checked and maintained between 1 and 2.
(§1) The solution for background detection was a 945 μl solution containing 0.1 HEPES (pH 7.8), 1 mM pyruvate, 6 μM NADPH, 40 μM L-ASA, and 7 μl of 1 mg/ml DHPS at 25° C. in the volumes provided above. The sample solution was then mixed and incubated for 10 minutes. Next, 500 nM solutions of the inhibitors and enough DMSO to provide a final DMSO concentration of 5% of the total assay volume were added. The solution was mixed and incubated for an additional 6 minutes.
In DHPR samples, 5 μl of the diluted DHPR enzyme were added. The sample was mixed for 20 seconds and then the reaction was run for 10 minutes. […] Reading of the samples was continued until 300 seconds. […] The substrate was kept at a level at least 10 times the Km. The final concentration of L-ASA was about 1 mM.

[2] = target: T1, lactate dehydrogenase (LDH) (Oryctolagus cuniculus, UniProt P13491); test: LDH kinetic assay, spectrophotometric oxidation of NADH at 340 nm; assay type: biochemical, Rabbit; conditions: Cibacron Blue at 10.3 μM; read-out: inhibition of LDH, positive control
T1 construct: LDH from Rabbit Muscle; from tissue; host or cells: rabbit muscle
Procedure: Solutions of 100 μl of the inhibitors in DMSO were prepared to provide a final DMSO concentration of 5% of the total assay volume. […] The reaction was then initiated with 10 μl of LDH from Rabbit Muscle (0.5 μ/ml; 1:2000 dilution of 1.0 mg/ml). […] Reading of the samples was continued until 300 seconds. […] The substrate was kept at a level at least 10 times the Km.

E. coli DHPR = E. coli DHPR (Escherichia coli, UniProt P04036); test: Screening of bi-ligands on DHPR, kinetic oxidation of NADPH (Example 38); assay type: biochemical; conditions: Cibacron Blue at 2.58 μM, read-out: inhibition of DHPR, positive control
Procedure: Bi-ligands were produced by the methods of Examples 14 to 18. The bi-ligands were screened for binding to E. coli DHPR. The bi-ligands were screened using a kinetic protocol that spectrophotometrically evaluates oxidation of NADPH.
Dilution of DHPR was prepared in 10 mM HEPES at a pH of 7.4. DHPS was not diluted and was stored in eppindorf tubes.
The L-ASA solution was prepared in the following manner. […] stock solution of ASA was prepared. 100 μl of the ASA stock was mixed with 150 μl of concentrated NaHCO3 and 375 μl of H2O. For use in the assay, 28.8 mM L-ASA equal 625 μl of the solution. The L-ASA stock solution was kept at a temperature of −20° C. After dilution, the pH of the 28.8 mM solution was checked and maintained between 1 and 2.
as §1
In DHPR samples, 5 μl of the diluted DHPR enzyme were added. […] Reading of the samples was continued until 300 seconds. […]

[3] = target: 1-deoxy-D-xylulose-5-phosphate reductase (DOXPR) (Escherichia coli, UniProt P45568); test: DOXPR kinetic assay, spectrophotometric oxidation of NADPH at 340 nm; assay type: biochemical; conditions: Cibacron Blue at 10.32 μM; read-out: inhibition of DOXPR, positive control
Procedure: DOXPR was diluted in 10 mM HEPES at a pH of 7.4.
Solutions of the inhibitors in DMSO were prepared to provide a final DMSO concentration of 5% of the total assay volume. […] The oxidation reaction was then initiated with 10 μl of DOXP reductoisomerase (10 μg/ml). […] Reading of the samples was continued until 300 seconds. […] The substrate was kept at a level at least 10 times the Km.

Chain of E. coli DHPR (P04036 whole entry): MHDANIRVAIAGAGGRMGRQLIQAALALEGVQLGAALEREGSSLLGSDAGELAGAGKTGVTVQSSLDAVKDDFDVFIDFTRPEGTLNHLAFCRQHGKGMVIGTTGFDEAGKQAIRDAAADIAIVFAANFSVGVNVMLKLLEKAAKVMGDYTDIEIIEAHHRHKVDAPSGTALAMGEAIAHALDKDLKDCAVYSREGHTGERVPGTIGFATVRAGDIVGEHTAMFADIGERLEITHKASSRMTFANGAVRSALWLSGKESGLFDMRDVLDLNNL
Chain of dihydrodipicolinate reductase (DHPR) (P04036 whole entry): as above
Chain of 1-deoxy-D-xylulose-5-phosphate reductase (DOXPR) (P45568 whole entry): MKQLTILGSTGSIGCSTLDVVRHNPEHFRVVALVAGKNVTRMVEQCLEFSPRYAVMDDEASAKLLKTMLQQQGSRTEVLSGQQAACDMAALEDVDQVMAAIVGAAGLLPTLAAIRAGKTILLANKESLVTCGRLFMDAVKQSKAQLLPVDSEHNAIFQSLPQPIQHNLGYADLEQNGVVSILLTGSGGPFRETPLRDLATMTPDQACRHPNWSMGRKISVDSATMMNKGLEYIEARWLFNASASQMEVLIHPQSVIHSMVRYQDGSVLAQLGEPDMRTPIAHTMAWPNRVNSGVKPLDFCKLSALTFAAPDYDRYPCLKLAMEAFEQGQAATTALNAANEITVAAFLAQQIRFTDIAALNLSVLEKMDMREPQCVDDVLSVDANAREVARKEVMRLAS

Nc1c(S(=O)(=O)O)cc(Nc2ccc(Nc3nc(Cl)nc(Nc4ccccc4S(=O)(=O)O)n3)c(S(=O)(=O)O)c2)c2c1C(=O)c1ccccc1C2=O [Cibacron Blue, reference compound]
inhibition at 2.58 µM [1]: 70 to 80% | inhibition at 10.3 µM [2]: 50 to 70% | inhibition at 2.58 µM (E. coli DHPR): 70 to 80% | inhibition at 10.32 µM [3]: 70 to 80%
